Laboratory results taken from patent publication US5300491A, “Treatment of protozoal infection” (priority 1992, dated 1994).
Values after ≈ are worked out from the molar mass of the structure shown. Values joined by “and” are separate entries in the source; they are usually repeats but may differ in a detail not shown here. Identical values can stand only once. Like-named read-outs stand apart in the source and are kept apart here.

Experiments:
Trichomonas vaginalis [1] = experiment: Trichomonas vaginalis assay of other divalent metal salts of bacitracin (MIC); format: cell-based
Method: (§1) All isolates were treated with either bacitracin or zinc bacitracin.
(§2) Prior to being diluted with the medium, the bacitracins were initially solubilized in water to 250 mg/ml. The zinc salt was solubilized in acidified water (60 μl HC1/ml). Duplicate plates of each isolate were prepared. one set of plates was exposed to an aerobic environment; and, the second set was exposed to an anaerobic environment. An Oxoid HP 11 anaerobic gas chamber and BR 38 gas generating kit were used to produce the anaerobic environment.
The procedure of Example IV was repeated, substituting bacitracin salts of the following metals for zinc bacitracin: nickel, cadmium, cobalt, manganese, copper and iron. The MLCs of the bacitracin salts were out of range. However, the MICs indicate that, with the exception of ferrous bacitracin, complexation with a divalent metal salt enhanced the activity of bacitracin.

T. foetus = conditions: cited from earlier work; for side effects: in vivo
Trichomonas vaginalis [2] = experiment: Trichomonas vaginalis assay (MLC, aerobic and anaerobic); format: cell-based
Method: as §1, §2

Tritrichomonas gallinae = Tritrichomonas gallinae assay (MLC); format: cell-based; conditions: isolate GH85; anaerobic
Method: A single T. gallinae isolate was collected and treated with bacitracin or zinc bacitracin in accordance with the procedure of Example IV. Duplicate plates of the isolate were prepared. one plate was exposed to an aerobic environment. The second plate was exposed to an anaerobic environment.

Giardia lamblia = format: cell-based; conditions: Portland isolate; anaerobic; 24 hours; two lines of values
Method: A Portland isolate of G. lamblia was treated with bacitracin and zinc bacitracin according to the procedure of Example IV. An Oxoid HP 11 anaerobic gas chamber and BR 38 gas generating kit were used to produce an anaerobic environment. […] The parasites were incubated in the presence of the treating reagent for 2 4 hours. The viability of the parasites was based on morphology and motility.

E. histolvtica = conditions: fifty South African patients; 2.4 g daily for 5 days; cited from earlier work

Compound: Manganese Bacitracin
- MIC (Trichomonas vaginalis [1]; T. vaginalis isolate 1910): 1260 µg/mL
- MIC (Trichomonas vaginalis [1]; T. vaginalis isolate UCH1): 150 µg/mL

Compound: Cc1ncc([N+](=O)[O-])n1C [dimetridazole]
- side effects (T. foetus; iv): respiratory difficulty, ataxia and lung collapse
- side effects (T. foetus; po): rumen stasis and anorexia
- effectiveness (T. foetus; multiple oral doses): moderately effective
- effectiveness (T. foetus; single intravenous administration): moderately effective

Compound: Cc1ncc([N+](=O)[O-])n1CCO [Metronidazole]
- MLC (Trichomonas vaginalis [2]; isolate 1031, metronidazole-sensitive, aerobic): 40 µg/mL (≈ 234 µM)
- MLC (Trichomonas vaginalis [2]; isolate 1031, metronidazole-sensitive, anaerobic): 4 µg/mL (≈ 23.4 µM)
- MLC (Trichomonas vaginalis [2]; isolate 1043, metronidazole-sensitive, aerobic): 20 µg/mL (≈ 117 µM)
- MLC (Trichomonas vaginalis [2]; isolate 1043, metronidazole-sensitive, anaerobic): < 1 µg/mL
- MLC (Trichomonas vaginalis [2]; isolate 1044, metronidazole-sensitive, aerobic): < 10 µg/mL
- MLC (Trichomonas vaginalis [2]; isolate 1044, metronidazole-sensitive, anaerobic): < 1 µg/mL
- MLC (Trichomonas vaginalis [2]; isolate 1064, metronidazole-sensitive, anaerobic): < 1 µg/mL
- MLC (Trichomonas vaginalis [2]; isolate 1065, metronidazole-sensitive, aerobic): < 10 µg/mL
- MLC (Trichomonas vaginalis [2]; isolate 1065, metronidazole-sensitive, anaerobic): < 1 µg/mL
- MLC (Trichomonas vaginalis [2]; isolate 1165, metronidazole-sensitive, aerobic): 40 µg/mL (≈ 234 µM)
- MLC (Trichomonas vaginalis [2]; isolate 1165, metronidazole-sensitive, anaerobic): < 1 µg/mL
- MLC (Trichomonas vaginalis [2]; isolate 1910, metronidazole-sensitive, aerobic): 40 µg/mL (≈ 234 µM)
- MLC (Trichomonas vaginalis [2]; isolate 1910, metronidazole-sensitive, anaerobic): 2 µg/mL (≈ 11.7 µM)
- MLC (Trichomonas vaginalis [2]; isolate 6950, metronidazole-sensitive, aerobic): 20 µg/mL (≈ 117 µM)
- MLC (Trichomonas vaginalis [2]; isolate 6950, metronidazole-sensitive, anaerobic): 2 µg/mL (≈ 11.7 µM)
- MLC (Trichomonas vaginalis [2]; isolate 89532.2, metronidazole-insensitive, aerobic): 200 µg/mL (≈ 1170 µM)
- MLC (Trichomonas vaginalis [2]; isolate 89532.2, metronidazole-insensitive, anaerobic): 2 µg/mL (≈ 11.7 µM)
- MLC (Trichomonas vaginalis [2]; isolate 90576, metronidazole-insensitive, aerobic): 80 µg/mL (≈ 467 µM)
- MLC (Trichomonas vaginalis [2]; isolate 90576, metronidazole-insensitive, anaerobic): 2 µg/mL (≈ 11.7 µM)
- MLC (Trichomonas vaginalis [2]; isolate CDC85, metronidazole-insensitive, aerobic): 200 µg/mL (≈ 1170 µM)
- MLC (Trichomonas vaginalis [2]; isolate CDC85, metronidazole-insensitive, anaerobic): 20 µg/mL (≈ 117 µM)
- MLC (Trichomonas vaginalis [2]; isolate IR78, metronidazole-insensitive, aerobic): 200 µg/mL (≈ 1170 µM)
- MLC (Trichomonas vaginalis [2]; isolate IR78, metronidazole-insensitive, anaerobic): 4 µg/mL (≈ 23.4 µM)
- MLC (Trichomonas vaginalis [2]; isolate PHLS289, metronidazole-insensitive, aerobic): 60 µg/mL (≈ 351 µM)
- MLC (Trichomonas vaginalis [2]; isolate PHLS289, metronidazole-insensitive, anaerobic): 8 µg/mL (≈ 46.7 µM)
- MLC (Trichomonas vaginalis [2]; isolate STH-1, metronidazole-insensitive, aerobic): 60 µg/mL (≈ 351 µM)
- MLC (Trichomonas vaginalis [2]; isolate STH-1, metronidazole-insensitive, anaerobic): 8 µg/mL (≈ 46.7 µM)
- MLC (Trichomonas vaginalis [2]; isolate UCH-1, metronidazole-sensitive, aerobic): 40 µg/mL (≈ 234 µM)
- MLC (Trichomonas vaginalis [2]; isolate UCH-1, metronidazole-sensitive, anaerobic): 4 µg/mL (≈ 23.4 µM)
- MLC (Trichomonas vaginalis [2]; isolate UCH-2, metronidazole-sensitive, aerobic): < 10 µg/mL
- MLC (Trichomonas vaginalis [2]; isolate UCH-2, metronidazole-sensitive, anaerobic): 2 µg/mL (≈ 11.7 µM)
- MLC (Trichomonas vaginalis [2]; isolate UCH-M1, metronidazole-sensitive, aerobic): 20 µg/mL (≈ 117 µM)
- MLC (Trichomonas vaginalis [2]; isolate UCH-M1, metronidazole-sensitive, anaerobic): 4 µg/mL (≈ 23.4 µM)
- MLC (Trichomonas vaginalis [2]; isolate UOB-1, metronidazole-sensitive, aerobic): 20 µg/mL (≈ 117 µM)
- MLC (Trichomonas vaginalis [2]; isolate UOB-1, metronidazole-sensitive, anaerobic): < 1 µg/mL
- MLC (Tritrichomonas gallinae): 2 µg/mL (≈ 11.7 µM)
- MLC (first of the two columns per drug) (Giardia lamblia): < 1 µg/mL
- MLC (second of the two columns per drug) (Giardia lamblia): 2 µg/mL and < 1 µg/mL
- treatment failure with persistent disease (E. histolvtica): 55%

Compound: Cobalt Bacitracin
- MIC (Trichomonas vaginalis [1]; T. vaginalis isolate 1910): 1250 µg/mL
- MIC (Trichomonas vaginalis [1]; T. vaginalis isolate UCH1): 1250 µg/mL

Compound: Nickel Bacitracin
- MIC (Trichomonas vaginalis [1]; T. vaginalis isolate 1910): 2500 µg/mL
- MIC (Trichomonas vaginalis [1]; T. vaginalis isolate UCH1): 1250 µg/mL

Compound: Copper Bacitracin
- MIC (Trichomonas vaginalis [1]; T. vaginalis isolate 1910): 1250 µg/mL
- MIC (Trichomonas vaginalis [1]; T. vaginalis isolate UCH1): 2500 µg/mL

Compound: Ferrous Bacitracin
- MIC (Trichomonas vaginalis [1]; T. vaginalis isolate 1910): > 10000 µg/mL
- MIC (Trichomonas vaginalis [1]; T. vaginalis isolate UCH1): > 10000 µg/mL

Compound: Cadmium Bacitracin
- MIC (Trichomonas vaginalis [1]; T. vaginalis isolate 1910): 150 µg/mL
- MIC (Trichomonas vaginalis [1]; T. vaginalis isolate UCH1): 310 µg/mL
